Assays:
[1] = system: PTPs, including PTP1B, HePTP, SHP2, LAR, PTPα, PTPH1, VHR, and Cdc14; test: PTP inactivation by BBP-based probes, several PTPs (pNPP substrate); type: biochemical; details: for effectiveness at inhibiting PTP activity, I compared with II: pNPP as substrate
[2] = system: PTPs: YopH, PTP1B, HePTP, SHP2, FAP-1, PTPα, DEP-1, VHR, Cdc14, PRL3, low molecular weight PTP; type: binding; details: pH 6
[3] = system: panel of non-PTP enzymes/proteins; type: binding
[4] = system: total cell lysates from E. coli; type: binding
[5] = Solubility in aqueous solution; type: physicochemical; details: compared with II
[6] = Stability of probe in buffers and toward nucleophiles (NMR and mass spectrometry)

Compound: O=C(CCCCC1SCC2NC(=O)NC21)NCc1ccc(C(Br)P(=O)(O)O)cc1 (stereo not shown) [Compound I, [Bromo-(4-{[5-(2-oxo-hexahydro-thieno[3,4-d]imidazol-6-yl)-pentanoylamino]-methyl}-phenyl)-methyl]-phosphonic acid]
- effect of scavenging nucleophiles on rate of PTP inactivation [1]: did not affect the rate
- reversibility of PTP inactivation ([1]; extensive dialysis and/or buffer exchange of the reaction mixture): irreversible
- effectiveness at inhibiting PTP activity, I compared with II [1]: equally effective at inhibiting PTP activity
- covalent labeling of PTPs [2]: covalently incorporated into all PTPs tested
- reactivity towards non-PTP enzymes/proteins [3]: none of the proteins tested were reactive
- labeling of E. coli proteins [4]: no E. coli proteins were labeled
- solubility in aqueous solution [5]: better solubility in aqueous solution
- reaction with nucleophilic agents ([6]; 48 hours with 100 mM DTT, 50 mM azide or 50 mM cysteine, pH 6 or 7 buffers): did not produce the expected substitution products
- stability in buffer ([6]; pH 6 buffers): quite stable
- stability in buffer (solvolysis) ([6]; pH>7): significant solvolysis could be detected

Compound: O=C(CCCCC1SCC2NC(=O)NC21)NCCCCCC(=O)NCc1ccc(C(Br)P(=O)(O)O)cc1 (stereo not shown) [Compound II, {Bromo-[4-({6-[5-(2-oxo-hexahydro-thieno[3,4-d]imidazol-6-yl)-pentanoylamino]-hexanoylamino}-methyl)-phenyl]-methyl}-phosphonic acid]
- effectiveness at inhibiting PTP activity, I compared with II [1]: equally effective at inhibiting PTP activity

Compound: O=C(O)CCCC[C@@H]1SC[C@@H]2NC(=O)N[C@@H]21 [biotin, reference compound]
- covalent labeling of PTPs [2]: did not label the PTPs

Compound: arsenate [reference compound]
- protection of PTP from BBP-mediated inactivation [1]: able to protect PTP from BBP-mediated inactivation

Reference: US7736911B2, “Activity-based probes for protein tyrosine phosphatases” (Albert Einstein College of Medicine of Yeshiva University, priority 2004, dated 2010)
